From patent publication US20240287545A1, “Improved lysis procedures” (uniQure biopharma B.V., priority 2021, published 2024)

Tested on: baculovirus
Assay: TCID50 assay of infectious baculovirus titer after lysis (baculovirus clearance)
Format: cell-based
Conditions: for baculovirus clearance, TCID50 results: study 1, after detergent treatment (FIG. 3); for baculovirus clearance, TCID50 samples: study 2, CLB, all concentrations tested (0.25% through 1%), bulk material 7.8 log TCID50/mL
Excerpt: A reduction in titer of a rod-like shaped virus, i.e., the factor by which the titer of the virus to be removed is decreased, is preferably at least 5 logs, e.g. after a mixed population of parvoviral particles and 10×10^1 baculoviral virions had been separated in accordance with a method of the invention, no baculoviral virions were then detected in the filtrate. Preferably, the reduction in titer of a rod-like shaped virus that is achieved by a method of the invention is at least 5.5 logs, at least 6 logs, at least 6.5 logs, at least 7 logs, at least 8 logs, at least 9 logs, most preferably at least 10 logs. The titer can be determined by general methods known in the art, such as for example by a Tissue Culture Infectious Dose 50% (TCID50) assay. For example, the infectious baculovirus titer of a population of baculoviral virions in a sample can be determined using a TCID50 assay. This method is based on the infection of monolayers of Sf9 insect cells with infectious baculovirus in a positive control sample. A serial dilution in culture medium of the positive control sample is used to infect the cells. The cells are incubated at +28° C. for 7 days. Subsequently, the supernatants are transferred to newly prepared plates with monolayers of Sf9 insect cells and incubated at +28° C. for 7 days. As infection proceeds, the infected cells are not able to remain attached to each other and to the plate surface and form loose cells, i.e., show cytopathogenic effect (CPE), which can be observed microscopically. The titer in log 10 TCID50/mL is calculated using the Spearman-KArber method.
Analytics performed on samples during these studies included: qPCR to determine vector genome copies (GC) concentration (GC/mL), SEC-HPLC was used to determine total particle (TP) content (TP/mL) which includes empty and full particles which can only be done of samples after affinity chromatography. A TCID50 assay is a measure of infectious baculovirus titer and is used to test clearance of baculovirus after the lysis step where the detergent is added. Potency was determined based on the ability of the product to mediate production of active transgene polypeptide product (here FIX) by Huh-7 cells as compared to a reference sample. Huh-7 cells are infected and cultured to allow production of transgene polypeptide which is then quantified using a commercially obtained activity assay (221805 or 221806 from Hyphen Biomed). LDAO clearance in the drug substance (DS) was measured with an outsourced commercially available chromatographic method.
4.1 different surfactants can be used This first study involved crude bulk material generation using a shaker flask-based protocol following the process outlined in Example 1, until affinity chromatography; where the batch binding method was used. […]

Structure (SMILES) | baculovirus clearance, TCID50 results | baculovirus clearance, TCID50 samples
CCCCCCCCCCCCO[C@@H]1O[C@H](CO)[C@@H](O[C@H]2O[C@H](CO)[C@@H](O)[C@H](O)[C@H]2O)[C@H](O)[C@H]1O [DDM, n-dodecyl-beta-D-maltoside] | below the limit of detection | below the limit of detection
CCCCCCCCCCCC[N+](C)(C)[O-] [LDAO, lauryldimethylamine oxide] | below the limit of detection | below the limit of detection
